# Measured values: paper PMC12397098, “3-Monothiopomalidomide, a new immunomodulatory imide drug (IMiD), blunts inflammation and mitigates ischemic stroke in the rat” (GeroScience, 2025)
# Legend:
# [1] = 3-MP nanosuspension time-dependent stability (LC-MS); format: physicochemical
# Description: Thalidomide, pomalidomide, and most related analogues have poor aqueous solubility. As a consequence, to aid biological evaluation, a 3-MP nanosuspension was prepared in line with our prior study. Specifically, the drug was mixed in an aqueous solution (Tween 80/water) and vortexed for 10 min. The coarse drug suspension was then placed in Eppendorf microtubes containing approximately 0.4 g of 0.1–0.2 mm yttrium-stabilized zirconia-silica beads (Silibeads® Typ ZY Sigmund Lindner, Germany). These were vortexed twice, at 3000 rpm for 45 min, using a beads-milling cell disruptor (Disruptor Genie®, Scientific Industries, USA). […] To evaluate the stability of the 3-MP nanosuspension, a vial (241 μM, 4 °C) was time-dependently sampled over a 98-day period, and the drug was quantified by LC–MS (see Supplementary information). […]
# Nanoformulation LC/MS Assays: A rudimentary assay was devised to assess the relative stability of nanoformulated 3-MP. In short, a sample of nanoformulated 3-MP was monitored for degradation until, roughly, 10% of the original material was lost due to hydrolysis and other such factors. […] These samples were immediately analyzed. […] The areas of the ensuing UV peaks detected at 254nm served as the basis for analysis, and the stock nanoformulation was monitored as a function of derivation from the 3-MP nanoformulation t=0 area (defined as “100% Area Percent” in the initial trace). […]
# [2] = system: MCAo-induced brain infarction; assay: MCAo ischemic stroke: brain infarct volume (TTC); format: in vivo, rat; conditions: 3-MP 10.58 and 21.17 mg/kg I.P. (doses combined), 48 h
smiles,measurement,setting,value
"Nc1cccc2c1C(=S)N(C1CCC(=O)NC1=O)C2=O (stereo not shown) [3-MP, 3-Monothiopomalidomide]","area of the 3-MP peak, relative intensity","[1]; nanoformulated 3-MP stock stored in the dark at 4 °C, t=98 days, UV 254 nm, relative to t=0",below 90%
same,stability of 3-MP nanosuspension,"[1]; nanosuspension in Tween-80/water, 241 μM, 4 °C, 98-day period, LC–MS/MS",time-dependently stable
same,infarct volume,"[2]; rat MCAo 60 min + reperfusion, TTC",4.32 ± 1.33%
same,reduction of infarct volume versus MCAo + vehicle,[2]; rat MCAo,56%
